Data set [1] in a line: In vitro ^2H label exchange / label stability studies. The format is physicochemical. As to conditions: acid-hydrolysis conditions used for proteins (6N HCl).
The subject of another data set is rats. Put plainly: Tolerability of 4% ^2H2O drinking water in rats. The format is in vivo. Conditions: rats given 4% ^2H2O as drinking water.
The conditions of data set [2]: cited from earlier work.
Data set [3] has as its system humans and experimental animals. Briefly: Long-term maintenance of high body water ^2H2O enrichment, toxicity. It is filed as in vivo. Conditions: 1–5% of total body water labeled, weeks or months, >100 people and experimental animals. From the text: Relatively high body water enrichments of ^2H2O (e.g., 1–5% of the total body water is labeled) have been achieved using the techniques of the invention. […] This finding in a large number of human subjects (>100 people) is contrary to previous concerns about vestibular toxicities at high doses of ^2H2O. Applicants have discovered that as long as rapid changes in body water enrichment are prevented (e.g., by initial administration in small, divided doses), high body water enrichments of ^2H2O can be maintained with no toxicities. Previous dosing of ^2H2O in humans, for other purposes (e.g., measurement of fatty acid or cholesterol synthesis or gluconeogenesis) have typically used lower doses and achieved lower body water enrichment. The low expense of commercially available ^2H2O allows long-term maintenance of enrichments in the 1–5% range at relatively low expense (e.g., lower cost for 2 months labeling at 2% ^2H2O enrichment, and thus 7–8% enrichment in the alanine precursor pool (FIGS. 2A–B), than for 12 hours labeling of ^2H-leucine at 10% free leucine enrichment, and thus 7–8% enrichment in leucine precursor pool for that period).

In another data set the test system is human subjects. Briefly: Tolerability of daily oral ^2H2O in human subjects. The format is in vivo. As to conditions: human subjects (healthy and HIV/AIDS) drinking 50–100 ml daily for 10–12 weeks.
For data set [4] the following is noted: rat, in vivo.
Excerpt: The ^2H2O labeling protocol consisted of an initial intraperitoneal (ip) injection of 99.9% ^2H2O, to achieve ca. 2.5% body water enrichment (assuming total body water to be 60% of body weight) followed by administration of 4% ^2H2O in drinking water. For labeling of rats in utero, 4% drinking water was started while the male and female adult rats were housed together for mating (i.e. before pregnancy) and the 4% ^2H2O drinking water was continued through the pregnancy and post-delivery period.
The ^2H2O enrichment of body water was measured by a GC/MS technique that we have described elsewhere (Neese et al., Analytic Biochem 298(2):189–95, 2001). Briefly, the hydrogen atoms from water (10 μL) were chemically transferred to acetylene by reaction with calcium carbide in a sealed vial. Acetylene gas was then derivatized by injection into another sealed vial containing 0.5 ml Br2 (0.1 mM) dissolved in CCl4, followed by quenching of remaining Br2 with cyclohexene. The resulting tetrabromoethane was dissolved in CCl4 and was analyzed by GC/MS, using a DB-225 column (30 m, J&W, Folsom, Calif.) at 180° C., with methane chemical ionization (C.I.). The ions at m/z 265 and 266 were analyzed using selected ion monitoring. These ions represent the M0 and M1 mass isotopomers of the C2H2Br3^+ fragment (^79Br^79Br^81Br isotopologue). The enrichments of ^2H2O in water samples were calculated by comparison to standard curves generated by mixing 100% ^2H2O with unlabeled H2O in known proportions (Neese et al., Analytic Biochem 298(2):189–95, 2001).
In the next data set the test system is bone collagen. Briefly: Bone collagen synthesis rate (ks) in ovariectomized rats by ^2H2O labeling. It is filed as in vivo. As to conditions: ovariectomized female rats, pellet 200 μg. The method, then: The fractional synthesis or replacement rate (ks) of proteins or peptides may be determined by application of the continuous labeling, precursor-product formula: [formula] where A^∞ represents the asymptotic or plateau value of the amino acid I.E. (isotopic enrichment) possible under the labeling conditions present and AA(protein)t represents the measured protein-bound amino acid at time t.
Ovariectomy was performed in adult female rodents as described (9). After allowing 3 weeks for recovery from surgery, the rats received either estradiol by subcutaneous pellet (200 μg) or sham placement of pellet. ^2H2O labeling was initiated at the time of pellet placement and continued for 2 weeks, at which time the animals were sacrificed and bone was collected.
Rats were killed every 1–2 weeks during a 10-week period of ^2H2O administration. The rear left femur was collected and was dissected free of soft tissue. Bone marrow and trabecular bone were removed using a needle with sharp cutting surface (ref: Bone 2000). After washing 3 times with water, the bone was splintered and powdered under liquid N2 in a Spex mill and defatted with chloroform:methanol (1:1, v:v). After drying, the powdered bone was subjected to acid hydrolysis in 6N HCl (110° C., 24 hr). The free AA were dried under N2 gas and derivatized for analysis by gas chromatography/mass spectrometry (GC/MS). […]

Like-named read-outs stand apart in the source and are kept apart here.

In the case of `[2H]C(C)(N)C(=O)O` (stereo not drawn) [^2H1-labeled alanine], in data set [1], the “loss of ^2H-label” value is “no loss of ^2H-label was observed”.

`[2H]C([2H])(N)C(=O)O` [^2H2-labeled glycine]: the “loss of ^2H-label” value in data set [1] was “no loss of ^2H-label was observed”.

Regarding `[2H]O[2H]` [^2H2O], the “growth and signs of toxicity” value in the data set with rats is “grew normally and exhibited no signs of toxicity”. In data set [2] (turnover of body water pool), the half-life was 14400 to 20200 min. Also, the “toxicity at maintained body water enrichment” value in data set [3] is given as “without any evidence of toxicity”. In addition, the “adverse effects or toxicities” value in the data set with human subjects is reported as “No adverse effects or toxicities were observed”. Also, in data set [4], the “Body ^2H2O Enrichment (%)” value came out at 2.6% and the “measured ^2H2O enrichment in maternal blood” value stood at 2.4%.

`C[C@]12CC[C@@H]3c4ccc(O)cc4CC[C@H]3[C@@H]1CC[C@@H]2O` [estrogen, estradiol]: in the data set with bone collagen (2 weeks ^2H2O labeling), the “ks of bone collagen” value came out at 0.008 day⁻¹. Further, the “decrease in ks of bone collagen” value in the data set with bone collagen (2 weeks, compared to vehicle-implanted ovariectomized rats) was 35–40%.

Take ^2H-glucose: in data set [2] (in vivo), the half-life was 20 min.

Take ^2H-leucine: the half-life in data set [2] (in vivo) was less than 30 min.

What is called half-life is the time needed for the level to fall by half in the phase considered.

The record behind these values is US7001587B2, “Measurement of protein synthesis rates in humans and experimental systems by use of isotopically labeled water” (The Regents of the University of California, priority 2001, dated 2006).
